Ends that are not written are not given here.
Experiments:
Malassezia furfur = assay: Growth inhibition at equal concentrations by weight of P18, zinc pyrithione, climbazole, ketoconazole (CFU); format: cell-based
Procedure: (§1) The studies described hereinafter were conducted on the Malassezia furfur strain DSM 6170.
For this purpose, the procedure was as follows:
(§2) The growth test was effected as follows: a shake culture containing M472 Pityrosporum medium was inoculated with M. furfur and incubated with shaking at 30° C. and 200 rpm overnight.
A 96-well microtiter plate was filled with 100 μl per well of M472 Pityrosporum medium and inoculated with M. furfur suspension from the overnight culture. The M. furfur suspension was adjusted at the start of the experiment to an optical density, measured at 600 nm, of 0.02. The concentrates of the inhibitor solutions were 1 mM in DMSO for P18 peptide and 10 mM in DMSO for zinc pyrithione, ketoconazole and climbazole. The final DMSO concentration was kept the same in all experiments.
The following growth was compared by measuring the optical density: • M. furfur suspension and addition of the P18 solution with a final concentration of 50 μM (corresponds to 0.0115% (w/w)) • M. furfur suspension and addition of the zinc pyrithione (ZPT) solution with a final concentration of 362 μM (comparison to the mixture containing 50 μM P18 peptide) • M. furfur suspension and addition of the ketoconazole solution with a final concentration of 216 μM (comparison to the mixture containing 50 μM P18 peptide) • M. furfur suspension and addition of the climbazole solution with a final concentration of 390 μM (comparison to the mixture containing 50 μM P18 peptide)
The microtiter plate was incubated with shaking at 30° C.
[…] After incubation over the course of 6 days, the colonies on the plate were counted. The CFU was determined in order to rule out any influence of the biphasic medium, and also the growth form of M. furfur, on the optical density. The experiments were each conducted in double determination, at least in two independent experiments.

M. furfur DSM 6170 = assay: Comparison of further inventive peptides and AFPP (CFU); format: cell-based, Malassezia furfur; details: 0.3%; 10 minutes
From the text: In order to compare the effect of other inventive peptides with the effect of the antifungal polypeptide AFPP from Aspergillus giganteus on the growth of Malassezia furfur, the procedure was as follows:
As a comparison, the peptide variants with SEQ ID NO. 4726 (sequence: FKKALHLFKPIKKFLKWK-NH2 (Bachem AG, Switzerland)) and SEQ ID NO. 4727 (sequence: KFLHLAKKFPKWKLFKKI-NH2 (Bachem AG, Switzerland)) were selected. The peptide and AFPP concentrates were in the form of 2% (w/w) solutions in phosphate buffer (10 mM sodium phosphate, pH 7.5, 100 mM NaCl). […]
For each test mixture, a 1.5 ml reaction vessel was filled with Pityrosporum medium and inoculated with the M. furfur overnight culture to give a start OD of 0.1, measured at 600 nm.
The growth of the following test mixtures was monitored: • M. furfur suspension and addition of 90 μl of phosphate buffer (in order to rule out any influence of the phosphate buffer on the effect of the active peptides at a final concentration of 0.3%) • M. furfur suspension with a final concentration of the inventive peptide variant with SEQ ID NO. […]
The reaction volume was 600 μl in each case. […] The CFU (colony forming units) were determined by counting after incubation at 30° C. for 6 days. […]

M. furfur = assay: Effect of P18 variants (CFU); format: cell-based, Malassezia furfur; details: 50 μM peptide, with DMSO; 24 h
Procedure: as §1
The inhibitory effect of the following P18 variants on M. furfur was studied:
as §2
A 96-well microtiter plate was filled with 100 μl per well of M472 Pityrosporum medium and inoculated with M. furfur suspension from the overnight culture. The M. furfur suspension was adjusted at the start of the experiment to an optical density, measured at 600 nm, of 0.1.
The peptide variants were dissolved with a final concentration of 1 mM in dimethyl sulfoxide (DMSO). It is also possible to dispense with DMSO and to use a purely aqueous peptide solution. 5 μl of this solution were added to 100 μl of M. furfur suspension (final concentration of the P18 peptide 50 μM). In a control mixture, the same amount of DMSO without P18 peptide was added.
The microtiter plate was incubated with shaking at 30°.
After 24 h, the colony forming units (CFU) were determined by streaking 10 μl of each of the suspensions and, after incubation over the course of 6 days, counting the colonies. Two independent experiments each with three identical mixtures were conducted, and the number of colony forming units was averaged.

| Compound | Colony forming units after the incubation time specified (M. furfur DSM 6170) | Averaged number of colony forming units (CFU) (M. furfur) | also measured |
| --- | --- | --- | --- |
| CC(C)(C)C(=O)C(Oc1ccc(Cl)cc1)n1ccnc1 (centres unmarked) [climbazole] | – | – | Colony forming units (CFU) (Malassezia furfur; final conc. 390 μM, 24 h): 137 ± 33 CFU; Colony forming units (CFU) (Malassezia furfur; final conc. 390 μM, 40 h): 35 ± 15 CFU |
| CC(=O)N1CCN(c2ccc(OCC3COC(Cn4ccnc4)(c4ccc(Cl)cc4Cl)O3)cc2)CC1 (centres unmarked) [ketoconazole] | – | – | Colony forming units (CFU) (Malassezia furfur; final conc. 216 μM, 24 h): 84 ± 76 CFU; Colony forming units (CFU) (Malassezia furfur; final conc. 216 μM, 40 h): 9 ± 5 CFU |
| FKKALHLFKPIKKFLKWK-NH2 [Peptide variant SEQ ID NO. 4726] | 3 ± 1 CFU | – | – |
| H-KWKLFKKIPKFLHLAKKF-OH [P18-OH] | – | 3 CFU | – |
| H-PKWKLFKKIPKFLHLAKKFD-OH [P18AC-OH] | – | 37 CFU | – |
| KFLHLAKKFPKWKLFKKI-NH2 [Peptide variant SEQ ID NO. 4727] | 59 ± 46 CFU | – | – |
